Data reported in patent US12630829B2, “Gene encoding cytochrome P450 and use thereof” (KUMIAI CHEMICAL INDUSTRY CO., LTD., priority 2020, dated 2026).
Where a name gives a salt, the structure may show the parent alone.

Key:
[1] = test system: Arabidopsis thaliana having AK454412 introduced thereinto and wild type; assay: Test of sensitivity to various drugs, AK454412-introduced versus wild type Arabidopsis thaliana; format: in vivo; conditions: evaluated subjectively based on drug concentration exhibiting the effect; 0, 0.1, 1, 10, 100, 1,000 nM
Method: Therefore, similar tests were performed on compounds having various acting properties described in HRAC including these sulfonylurea-based ALS inhibitors to search for a compound that can be metabolically degraded by AK454412. Specifically, 61 compounds arbitrarily selected from all of the 25 classifications of HRAC 2020 were subjected to sensitivity examination in Arabidopsis thaliana having AK454412 introduced thereinto and wild type. The sensitivity to each of the drugs was evaluated subjectively with respect to every acting symptom.
As a result, compounds found to have a difference in the sensitivity between the wild type and the recombinant Arabidopsis thaliana are illustrated in FIGS. 10-1 to 10-4. It is noted that concentrations of the drug in respective wells of a plate shown in each photograph in FIGS. 10-1 to 10-4 are 0, 0.1, and 1 nM in the stated order in the rightward direction in an upper portion, and 10, 100, and 1,000 nM in the stated order in the rightward direction in a lower portion. Besides, the compound found to have a sensitivity difference are listed below.

CYP81A6 = conditions: reported so far; cited from earlier work
[2] = main metabolite of fenquinotrione in a wheat body; cited from earlier work

Compound	approximate sensitivity difference between wild type and recombinant Arabidopsis thaliana [1]	metabolic reactivity of CYP81A6 against the compound (CYP81A6)	herbicidal activity [2]
CC(C)C1(C)N=C(c2nc3ccccc3cc2C(=O)O)NC1=O (centres unmarked) [imazaquin]	≤ 10		
CCOC(=O)COc1cc(-c2nn(C)c(OC(F)F)c2Cl)c(F)cc1Cl [pyraflufen-ethyl]	10		
COC(=O)NS(=O)(=O)c1ccc(N)cc1 [asulam]	< 10		
CS(=O)(=O)NC(=O)c1cc(Oc2ccc(C(F)(F)F)cc2Cl)ccc1[N+](=O)[O-] [fomesafen]	3		
COc1cc(OC)nc(Sc2cccc(Cl)c2C(=O)O)n1 [pyrithiobac-sodium salt]	100		
COC(=O)c1ccccc1CS(=O)(=O)NC(=O)Nc1nc(OC)cc(OC)n1 [bensulfuron-methyl]	10	exhibits metabolic reactivity	
CCC(CC)Nc1c([N+](=O)[O-])cc(C)c(C)c1[N+](=O)[O-] [pendimethalin]	< 100		
O=C1CCCC(=O)C1C(=O)c1nc2c(Cl)cccc2n(-c2ccc(O)cc2)c1=O [demethylated product of fenquinotrione]			does not exhibit herbicidal activity
COC(=O)c1ccccc1S(=O)(=O)NC(=O)Nc1nc(C)cc(C)n1 [sulfometuron-methyl]	5		
CC(C)N1C(=O)c2ccccc2NS1(=O)=O [bentazone]	< 5	exhibits metabolic reactivity	
O=C(Nc1ccc(F)cc1F)c1cccnc1Oc1cccc(C(F)(F)F)c1 [diflufenican]	2		
CO/N=C(/C)c1cccc(Oc2nc(OC)cc(OC)n2)c1C(=O)OC [pyriminobac-methyl]		exhibits metabolic reactivity	
fluridone	2		
COc1cnc(OC)n2nc(NS(=O)(=O)c3c(OCC(F)F)cccc3C(F)(F)F)nc12 [penoxsulam]	100		
CNc1cnn(-c2cccc(C(F)(F)F)c2)c(=O)c1Cl [norflurazon]	2		
Cc1nn(-c2cc(NS(C)(=O)=O)c(Cl)cc2Cl)c(=O)n1C(F)F [sulfentrazone]	10		
COc1cc(OC)nc(Oc2cccc(Oc3nc(OC)cc(OC)n3)c2C(=O)[O-])n1.[Na+] [Bispyribac-sodium salt, bispyribac-sodium salt]	< 5		
COCc1cccc(C(O)c2nc(OC)cc(OC)n2)c1NS(=O)(=O)C(F)F (centres unmarked) [pyrimisulfan]	100	exhibits metabolic reactivity	
O=C(Nc1ccc(F)cc1)c1cccc(Oc2cccc(C(F)(F)F)c2)n1 [picolinafen]	2		
oxadiargyl	2		
